In US20090221603A1, “HETEROCYCLIC AMIDE DERIVATIVES AS CALCIUM CHANNEL BLOCKERS” (priority 2005, published 2009):
Where two headings read alike, the source gives them in different places.

Columns and labels:
[1] = target: T1, rat brain N-type calcium channel subunits (α1B+α2δ+β1b cDNA subunits) (Rattus norvegicus, UniProt Q02294); assay: N-type calcium channel block, whole cell patch clamp in HEK 293 cells; format: cell-based; conditions: holding potential −80 mV to +10 mV
T1 construct: expressed in transfected cells; host or cells: HEK 293 (stably, alternatively transiently, transfected)
Method: A. Transformation of HEK Cells: • N-type calcium channel blocking activity was assayed in human embryonic kidney cells, HEK 293, stably transfected with the rat brain N-type calcium channel subunits (α1B+α2δ+β1b cDNA subunits). Alternatively, N-type calcium channels (α1B+α2δ+β1b cDNA subunits), L-type channels (α1C+α2δ+β1b cDNA subunits) and P/Q-type channels (α1A+α2δ+β1b cDNA subunits) were transiently expressed in HEK 293 cells. Briefly, cells were cultured in Dulbecco's modified eagle medium (DMEM) supplemented with 10% fetal bovine serum, 200 U/ml penicillin and 0.2 mg/ml streptomycin at 37° C. with 5% CO2. At 85% confluency cells were split with 0.25% trypsin/1 mM EDTA and plated at 10% confluency on glass coverslips. At 12 hours the medium was replaced and the cells transiently transfected using a standard calcium phosphate protocol and the appropriate calcium channel cDNA's. Fresh DMEM was supplied and the cells transferred to 28° C./5% CO2. Cells were incubated for 1 to 2 days prior to whole cell recording.
B. Measurement of Inhibition
Whole cell patch clamp experiments were performed using an Axopatch 200B amplifier (Axon Instruments, Burlingame, Calif.) linked to a personal computer equipped with pCLAMP software. The external and internal recording solutions contained, respectively, 5 mM BaCl2, 10 mM MgCl2, 10 mM HEPES, 40 mM TEACl, 10 mM glucose, 87.5 mM CsCl (pH 7.2) and 108 mM CsMS, 4 mM MgCl2, 9 mM EGTA, 9 mM HEPES (pH 7.2). Currents were typically elicited from a holding potential of −80 mV to +10 mV using Clampex software (Axon Instruments). Typically, currents were first elicited with low frequency stimulation (0.067 Hz) and allowed to stabilize prior to application of the compounds. The compounds were then applied during the low frequency pulse trains for two to three minutes to assess tonic block, and subsequently the pulse frequency was increased to 0.2 Hz to assess frequency dependent block. Data were analyzed using Clampfit (Axon Instruments) and SigmaPlot 4.0 (Jandel Scientific).

[2] = target: T2, human α1G T-type channels (Homo sapiens, UniProt O43497); assay: T-type calcium channel block, patch clamp in HEK cell lines; format: cell-based; conditions: mainly non-inactivated protocol; HEK cells expressing human α1G; read-out: IC50 @ −80 mV
T2 construct: expressed in transfected cells

[3] = system: tactile allodynia after L5/L6 spinal nerve ligation; assay: Spinal nerve ligation model of neuropathic pain, tactile allodynia (von Frey); format: in vivo, rat; conditions: SNL rats; orally in propylene glycol solution, 300 mg/kg
Description: Spinal nerve ligation (SNL) injury was induced using the procedure of Kim and Chung, (Kim, S. H., et al., Pain (1992) 50:355-363) in male Sprague-Dawley rats (Harlan; Indianapolis, Ind.) weighing 200 to 300 grams. Anesthesia was induced with 2% halothane in O2 at 2 L/min and maintained with 0.5% halothane in O2. After surgical preparation of the rats and exposure of the dorsal vertebral column from L4 to S2, the L5 and L6 spinal nerves were tightly ligated distal to the dorsal root ganglion using 4-0 silk suture. The incision was closed, and the animals were allowed to recover for 5 days. […] Sham control rats underwent the same operation and handling as the experimental animals, but without SNL. The assessment of tactile allodynia consisted of measuring the withdrawal threshold of the paw ipsilateral to the site of nerve injury in response to probing with a series of calibrated von Frey filaments. Each filament was applied perpendicularly to the plantar surface of the ligated paw of rats kept in suspended wire-mesh cages. Measurements were taken before and after administration of drug or vehicle. Withdrawal threshold was determined by sequentially increasing and decreasing the stimulus strength (“up and down” method), analyzed using a Dixon non-parametric test (Chaplan S. R., et al., J Pharmacol Exp Ther (1994) 269:1117-1123), and expressed as the mean withdrawal threshold.

[4] = system: T-type over L-type channels; conditions: cited from earlier work
[5] = low frequency stimulation 0.067 Hz (tonic block), read-out: IC50 @ 0.067 Hz
[6] = pulse frequency 0.2 Hz (frequency dependent block), read-out: IC50 @ 0.2 Hz

T2 sequence (O43497 whole entry): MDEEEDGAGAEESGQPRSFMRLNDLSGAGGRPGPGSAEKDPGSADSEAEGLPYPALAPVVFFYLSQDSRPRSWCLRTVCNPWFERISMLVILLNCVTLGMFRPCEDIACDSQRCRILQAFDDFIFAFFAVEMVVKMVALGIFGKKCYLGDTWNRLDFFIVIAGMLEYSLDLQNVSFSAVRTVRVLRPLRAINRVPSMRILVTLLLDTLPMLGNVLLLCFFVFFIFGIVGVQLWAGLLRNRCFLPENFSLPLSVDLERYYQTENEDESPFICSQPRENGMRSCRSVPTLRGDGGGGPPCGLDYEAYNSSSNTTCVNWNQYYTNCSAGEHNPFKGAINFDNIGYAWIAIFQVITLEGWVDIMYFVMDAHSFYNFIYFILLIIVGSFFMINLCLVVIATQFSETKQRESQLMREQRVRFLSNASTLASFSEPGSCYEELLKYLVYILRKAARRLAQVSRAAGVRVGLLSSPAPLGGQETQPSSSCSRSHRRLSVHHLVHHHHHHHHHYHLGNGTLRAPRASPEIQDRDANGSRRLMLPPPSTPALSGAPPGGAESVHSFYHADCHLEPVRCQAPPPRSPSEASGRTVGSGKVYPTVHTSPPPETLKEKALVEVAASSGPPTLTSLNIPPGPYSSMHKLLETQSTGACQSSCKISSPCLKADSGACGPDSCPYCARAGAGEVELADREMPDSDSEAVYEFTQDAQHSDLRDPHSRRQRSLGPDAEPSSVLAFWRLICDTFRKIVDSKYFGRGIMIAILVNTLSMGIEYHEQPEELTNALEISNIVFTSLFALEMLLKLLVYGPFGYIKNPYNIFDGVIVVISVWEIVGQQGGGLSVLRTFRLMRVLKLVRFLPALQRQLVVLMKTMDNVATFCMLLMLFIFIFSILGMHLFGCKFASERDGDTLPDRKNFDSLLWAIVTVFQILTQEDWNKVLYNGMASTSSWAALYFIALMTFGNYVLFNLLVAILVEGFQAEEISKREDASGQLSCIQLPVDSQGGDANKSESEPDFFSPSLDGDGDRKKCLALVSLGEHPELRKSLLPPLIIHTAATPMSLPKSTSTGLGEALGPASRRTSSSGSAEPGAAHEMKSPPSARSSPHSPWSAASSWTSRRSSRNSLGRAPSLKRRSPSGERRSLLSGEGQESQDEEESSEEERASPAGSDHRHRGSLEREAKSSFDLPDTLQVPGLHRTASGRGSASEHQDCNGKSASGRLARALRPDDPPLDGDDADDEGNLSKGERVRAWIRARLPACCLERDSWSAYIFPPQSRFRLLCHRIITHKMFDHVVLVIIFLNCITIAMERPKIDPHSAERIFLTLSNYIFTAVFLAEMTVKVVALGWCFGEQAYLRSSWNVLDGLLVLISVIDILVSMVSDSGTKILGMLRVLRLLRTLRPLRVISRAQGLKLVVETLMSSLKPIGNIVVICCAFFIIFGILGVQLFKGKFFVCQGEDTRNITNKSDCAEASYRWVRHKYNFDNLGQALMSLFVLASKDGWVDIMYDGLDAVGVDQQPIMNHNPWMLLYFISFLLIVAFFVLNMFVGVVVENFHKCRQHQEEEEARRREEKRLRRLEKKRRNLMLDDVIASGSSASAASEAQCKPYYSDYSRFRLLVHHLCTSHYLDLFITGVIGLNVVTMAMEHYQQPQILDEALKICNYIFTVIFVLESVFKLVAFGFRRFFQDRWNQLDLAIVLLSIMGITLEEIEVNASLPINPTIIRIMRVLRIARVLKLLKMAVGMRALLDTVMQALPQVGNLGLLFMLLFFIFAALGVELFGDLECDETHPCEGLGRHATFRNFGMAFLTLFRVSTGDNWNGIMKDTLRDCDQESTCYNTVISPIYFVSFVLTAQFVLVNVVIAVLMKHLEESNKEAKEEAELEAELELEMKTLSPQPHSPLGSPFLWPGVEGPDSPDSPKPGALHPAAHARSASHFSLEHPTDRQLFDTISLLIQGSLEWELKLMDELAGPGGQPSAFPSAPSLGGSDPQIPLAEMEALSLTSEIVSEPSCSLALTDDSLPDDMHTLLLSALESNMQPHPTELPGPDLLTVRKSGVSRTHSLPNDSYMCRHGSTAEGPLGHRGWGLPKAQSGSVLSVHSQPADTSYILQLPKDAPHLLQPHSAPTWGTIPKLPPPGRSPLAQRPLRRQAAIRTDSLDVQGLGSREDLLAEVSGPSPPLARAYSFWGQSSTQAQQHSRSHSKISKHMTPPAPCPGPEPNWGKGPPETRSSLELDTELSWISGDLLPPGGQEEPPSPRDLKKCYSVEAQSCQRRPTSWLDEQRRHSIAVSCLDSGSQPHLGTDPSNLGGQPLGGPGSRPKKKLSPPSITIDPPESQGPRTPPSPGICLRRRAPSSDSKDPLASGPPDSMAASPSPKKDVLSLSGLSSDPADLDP

Row | Structure (SMILES) | IC50 [1, 5] [nM] | IC50 [1, 6] [nM] | IC50 [2] [nM] | reversal of allodynia [3] | selectivity for T-type over L-type channels [4]
1 | O=C(CNC(c1ccccc1)c1ccccc1)N1CCN(C(c2ccccc2)c2ccccc2)C(CO)C1 (centres unmarked) [Compound 49, 2-benzhydrylamino-1-(4-benzhydryl-3-hydroxymethylpiperazin-1-yl)ethanone] | 490 | 290 | 370 | complete reversal of allodynia | 
2 | COCC(=O)O[C@]1(CCN(C)CCCc2nc3ccccc3[nH]2)CCc2cc(F)ccc2[C@@H]1C(C)C [Mibefradil] |  |  |  |  | 10-30 fold
3 | O=C(C[S+]([O-])C(c1ccccc1)c1ccccc1)N1CCN(C(c2ccc(F)cc2)c2ccc(F)cc2)CC1 (centres unmarked) [Compound 48, 2-(benzhydrylsulfinyl)-1-(4-(bis(4-fluorophenyl)methyl)piperazin-1-yl)ethanone] | 220 | 160 | 310 |  | 
4 | O=C(COc1ccc(Cl)cc1Cl)N1CCN(C(c2ccccc2)c2ccccc2)CC1 [Compound 26, 1-(4-benzhydrylpiperazin-1-yl)-2-(2,4-dichlorophenoxy)ethanone] | 250 | 190 | 1260 |  | 
5 | O=C(CNC(c1ccccc1)c1ccccc1)N1CCN(C(c2ccccc2)c2ccccc2)CC1 [Compound 1, 2-benzhydrylamino-1-(4-benzhydrylpiperazin-1-yl)ethanone] | 140 | 80 | 80 |  | 
6 | O=C(CNC(c1ccccc1)c1ccccc1)N1CCN(C(c2ccc(F)cc2)c2ccc(F)cc2)CC1 [Compound 29, 2-(benzhydrylamino)-1-(4-(bis(4-fluorophenyl)methyl)piperazin-1-yl)ethanone] | 270 | 140 | 9690 |  | 
7 | CN(CC(=O)N1CCN(C(c2ccccc2)c2ccc(F)cc2)CC1)C(c1ccccc1)c1ccccc1 (centres unmarked) [Compound 6, 2-benzhydryl(methyl)amino-1-(4-((4-fluorophenyl)(phenyl)methyl)piperazin-1-yl)ethanone] | 170 | 120 | 2000 |  | 

Further compounds by falling IC50 [1, 5], results first:

Row | IC50 [1, 5] [nM] | IC50 [1, 6] [nM] | IC50 [2] [nM] | Structure (SMILES) | reversal of allodynia [3] | selectivity for T-type over L-type channels [4]
8 | 920 | 430 | 350 | O=C(COC(c1ccccc1)c1ccccc1)N1CCN(C(c2ccc(F)cc2)c2ccc(F)cc2)CC1 [Compound 46, 2-(benzhydryloxy)-1-(4-(bis(4-fluorophenyl)methyl)piperazin-1-yl)ethanone] |  | 
9 | 520 | 310 | 2900 | CN(CC(=O)N1CCN(C(c2ccccc2)c2ccccc2)CC1)C(c1ccccc1)c1ccccc1 [Compound 2, 2-benzhydryl(methyl)amino-1-(4-benzhydrylpiperazin-1-yl)ethanone] |  | 
10 | 490 | 270 | 590 | O=C(COC(c1ccccc1)c1ccccc1)N1CCN(C(c2ccccc2)c2ccccc2)CC1 [Compound 30, 2-(benzhydryloxy)-1-(4-benzhydrylpiperazin-1-yl)ethanone] |  | 
11 | 250 | 150 | 490 | COCC1CN(C(=O)CNC(c2ccccc2)c2ccccc2)CCN1C(c1ccccc1)c1ccccc1 (centres unmarked) [Compound 53, 2-benzhydrylamino-1-(4-benzhydryl-3-methoxymethylpiperazin-1-yl)ethanone] |  | 
